Source: ChEMBL document CHEMBL2203126, “Diazine indole acetic acids as potent, selective, and orally bioavailable antagonists of chemoattractant receptor homologous molecule expressed on Th2 cells (CRTH2) for the treatment of allergic inflammatory diseases” (J Med Chem, 2012)
≈ marks a conversion by molar mass, not a printed value.

Key:
Eosinophil = experiment: cells; details: Homo sapiens, Blood, 10 min
Description: Inhibition of eosinophil shape change in human whole blood after 10 mins by flow cytometric assay

in vitro [1] = details: human, plasma
Description: Plasma protein binding in human

[2] = biological target: T1, Prostaglandin D2 receptor 2 (Homo sapiens, UniProt Q9Y5Y4); experiment: biochemical
T1 sequence (Q9Y5Y4 whole entry): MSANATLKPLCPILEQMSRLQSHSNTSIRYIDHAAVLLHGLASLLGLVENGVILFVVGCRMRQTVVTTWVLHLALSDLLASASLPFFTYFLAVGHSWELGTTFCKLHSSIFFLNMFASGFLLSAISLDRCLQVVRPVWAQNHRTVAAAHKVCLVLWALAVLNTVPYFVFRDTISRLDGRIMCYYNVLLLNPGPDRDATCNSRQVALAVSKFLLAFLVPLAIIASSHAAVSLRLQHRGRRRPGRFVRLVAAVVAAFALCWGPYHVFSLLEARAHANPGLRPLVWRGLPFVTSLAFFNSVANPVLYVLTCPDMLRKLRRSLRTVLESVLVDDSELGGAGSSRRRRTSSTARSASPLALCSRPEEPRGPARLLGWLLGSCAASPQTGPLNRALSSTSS
Description: (§1) Displacement of [3H]PGD2 from recombinant human CRTH2 receptor expressed in CHO-K1 cells after 30 min by FRET method

[3] = Dissociation constant, pKa of the compound; assay type: physicochemical
in vitro [4] = details: human, Caco-2, pH 6.2
Description: Apparent permeability in human Caco2 cells at pH 6.2/7.4

[5] = Effective permeability across human Caco2 cells; assay type: ADME, cell-based; details: Caco-2, read-out: Peff
Liver microsomes = experiment: Metabolic stability in human liver microsomes; assay type: ADME, Microsome
[6] = Clearance in mouse; assay type: ADME, organism-based; details: in vivo
[7] = Half life in mouse liver microsomes; assay type: ADME, Microsome
[8] = Oral bioavailability in mouse; assay type: ADME, organism-based; details: in vivo
[9] = biological target: T1, Prostaglandin D2 receptor 2; details: cho-k1
Description: as §1

[10] = Oral bioavailability in mouse at 10 mg/kg; assay type: ADME, organism-based; details: in vivo
[11] = Cmax in mouse at 10 mg/kg, po; assay type: ADME, organism-based; design: dose 10 mg/kg, route oral; details: in vivo
[12] = Volume of distribution at steady state in mouse at 2 mg/kg, iv; assay type: ADME, organism-based; design: dose 2 mg/kg, route intravenous; details: in vivo, read-out: Vdss
[13] = Half life in mouse at 2 mg/kg, iv; assay type: ADME, organism-based; design: dose 2 mg/kg, route intravenous; details: in vivo
[14] = Clearance in mouse plasma at 2 mg/kg, iv; assay type: ADME, organism-based; design: dose 2 mg/kg, route intravenous
physchem = details: buffer, pH 6.6
Description: Aqueous solubility of the compound at pH 6.6

in vivo [15] = details: rat, po, 10 mg/kg
in vivo [16] = details: rat, po, 10 mg/kg; remark: listed apart in the source
in vivo [17] = details: rat, iv, 2 mg/kg
Description: Volume of distribution at steady state in rat at 2 mg/kg, iv

in vivo [18] = details: rat, iv, 2 mg/kg; remark: listed apart in the source
Description: Half life in rat at 2 mg/kg, iv

in vivo [19] = details: rat, plasma, iv, 2 mg/kg
Description: Clearance in rat plasma at 2 mg/kg, iv

Mus musculus = species: Mus musculus; experiment: animal or person; details: Ear, po, read-out: INH

| Compound | IC50 [2] [nM] | pKa [3] | further results |
| --- | --- | --- | --- |
| Cc1c(Cc2ccc(=O)n(Cc3ccccc3)n2)c2cc(Cl)ccc2n1CC(=O)O | 15 | – | IC50 (Eosinophil): 15 nM; fraction unbound (in vitro [1]): < 0.02 |
| Cc1c(C2=NN(Cc3ccccc3)C(=O)C3CCCCC23)c2cc(F)ccc2n1CC(=O)O (centres undefined) | 109 | – | – |
| Cc1c(-c2nn(Cc3ccccc3)c(=O)c3ccccc23)c2ccccc2n1CCO | > 1000 | – | – |
| Cc1c(-c2ccc(=O)n(Cc3ccccc3)n2)c2cc(F)cc(F)c2n1CC(=O)O | 76 | 3.85 | – |
| Cc1c(-c2ccc(=O)n(Cc3ccccc3)n2)c2cc(S(C)(=O)=O)cc(F)c2n1CC(=O)O | 934 | 3.83 | – |
| Cc1c(Cc2ccc(=O)n(Cc3ccc(C(F)(F)F)cc3)n2)c2cc(F)ccc2n1CC(=O)O | – | – | IC50 (Eosinophil): 55 nM; fraction unbound (in vitro [1]): < 0.02 |
| Cc1c(-c2ccc(=O)n(Cc3ccccc3)n2)c2cc(Cl)cc(F)c2n1CC(=O)O | 90 | 3.86 | – |
| Cc1c(-c2ccc(=O)n(Cc3ccccc3)n2)c2cc(Br)ccc2n1CC(=O)O | 16 | 4.03 | – |
| Cc1c(-c2nn(Cc3ccccc3)c(=O)c3ccccc23)c2ccccc2n1CC(=O)NS(C)(=O)=O | > 1000 | – | – |
| Cc1c(-c2ccc(=O)n(Cc3ccccc3)n2)c2cccc(Br)c2n1CC(=O)O | – | 3.98 | – |
| Cc1c(-c2ccc(=O)n(Cc3ccccc3)n2)c2cc(S(C)(=O)=O)ccc2n1CC(=O)O | 135 | 4 | – |
| Cc1c(-c2nn(Cc3ccccc3)c(=O)c3ccccc23)c2ccccc2n1CC(=O)O | 16 | – | – |
| Cc1c(-c2ccc(=O)n(Cc3ccc(F)cc3F)n2)c2cc(F)ccc2n1CC(=O)O | 10 | – | Papp (in vitro [4]): 2.1 ×10⁻⁶ cm/s |
| Cc1c(-c2ccc(=O)n(Cc3ccccc3)n2)c2cc(F)cc(S(C)(=O)=O)c2n1CC(=O)O | – | 3.83 | – |
| Cc1c(-c2nn(Cc3ccccc3)c(=O)c3ccccc23)c2cc(F)ccc2n1CC(=O)O | 11 | – | – |
| Cc1c(-c2nn(Cc3ccccc3)c(=O)c3ccccc23)c2ccccc2n1CCC(=O)O | > 1000 | – | – |
| Cc1c(-c2ccc(=O)n(Cc3ccc(F)cc3)n2)c2cc(F)ccc2n1CC(=O)O | – | – | Papp [5]: 0.3 ×10⁻⁶ cm/s; Stability (Liver microsomes): Stable; clearance [6]: 6.9 mL/min/kg; half-life [7]: > 0.5 h; bioavailability [8]: 11%; IC50 [9]: 20 nM |
| Cc1c(-c2nn(Cc3ccccc3)c(=O)c3ccccc23)c2ccccc2n1C(C)C(=O)O (centres undefined) | > 1000 | – | – |
| Cc1c(-c2nn(CCOc3ccc(Cl)cc3)c(=O)c3ccccc23)c2cc(Cl)ccc2n1CC(=O)O | 2 | – | Papp [5]: 0.2 ×10⁻⁶ cm/s; clearance [6]: > 90 mL/min/kg; half-life [7]: 0.183 h; bioavailability [8]: < 1% |
| Cc1c(Cc2nn(Cc3ccccc3)c(=O)c3ccccc23)c2cc(Cl)ccc2n1CC(=O)O | 29 | – | – |
| Cc1c(-c2ccc(=O)n(Cc3ccccc3)n2)c2cc(F)cc(Cl)c2n1CC(=O)O | 245 | 3.86 | – |

| Compound | IC50 [2] [nM] | pKa [3] | further results |
| --- | --- | --- | --- |
| Cc1c(Cc2ccc(=O)n(Cc3ccncc3)n2)c2cc(F)ccc2n1CC(=O)O | 12 | – | IC50 (Eosinophil): 22 nM; fraction unbound (in vitro [1]): < 0.02 |
| COc1ccc2c(c1)c(-c1ccc(=O)n(Cc3ccccc3)n1)c(C)n2CC(=O)O | 104 | 4.07 | – |
| Cc1c(Cc2ccc(=O)n(Cc3ccc(F)cc3F)n2)c2ccccc2n1CC(=O)O | – | – | fraction unbound (in vitro [1]): < 0.02 |
| Cc1c(Cc2ccc(=O)n(Cc3ccccc3)n2)c2ccccc2n1CC(=O)O | – | – | IC50 (Eosinophil): 155 nM; fraction unbound (in vitro [1]): < 0.02 |
| Cc1c(Cc2ccc(=O)n(Cc3ccc(F)cc3F)n2)c2cc(F)cc(F)c2n1CC(=O)O | – | – | IC50 (Eosinophil): 180 nM; fraction unbound (in vitro [1]): < 0.02 |
| Cc1c(-c2nn(Cc3ccccc3)c(=O)c3ccccc23)c2ccccc2n1CC(=O)N(C)C | > 1000 | – | – |
| Cc1c(CC2=NN(Cc3ccc(F)cc3F)C(=O)CC2)c2cc(F)ccc2n1CC(=O)O | 4 | – | bioavailability [10]: 41%; Cmax [11]: 1890 ng/mL; Vd [12]: 1.12 L/kg; half-life [13]: 4 h; clearance [14]: 9 mL/min/kg; IC50 (Eosinophil): 8 nM; solubility (physchem): 954 µg/mL (≈ 2150 µM); fraction unbound (in vitro [1]): < 0.02 |
| Cc1c(Cc2ccc(=O)n(Cc3ccccc3)n2)c2cc(F)ccc2n1CC(=O)O | 9 | – | Papp (in vitro [4]): 4.3 ×10⁻⁶ cm/s |
| Cc1c(Cc2ccc(=O)n(Cc3cc(F)c(F)cc3F)n2)c2cc(F)ccc2n1CC(=O)O | 0.8 | – | IC50 (Eosinophil): 10 nM; fraction unbound (in vitro [1]): < 0.02 |
| Cc1c(Cc2ccc(=O)n(Cc3ccc(C(C)(C)O)cc3)n2)c2cc(F)ccc2n1CC(=O)O | 5 | – | IC50 (Eosinophil): 13 nM; fraction unbound (in vitro [1]): < 0.02 |
| Cc1c(-c2ccc(=O)n(Cc3ccccc3)n2)c2cc(Cl)ccc2n1CC(=O)O | 28 | 4.03 | – |
| Cc1c(-c2ccc(=O)n(Cc3ccccc3)n2)c2ccccc2n1CC(=O)O | 134 | 4.15 | – |
| Cc1c(CC2=NN(Cc3ccccc3)C(=O)CC2)c2cc(F)ccc2n1CC(=O)O | 16 | – | IC50 (Eosinophil): 4 nM; bioavailability (in vivo [15]): 28%; Cmax (in vivo [16]): 484 ng/mL; Vd (in vivo [17]): 1.7 L/kg; half-life (in vivo [18]): 4.3 h; clearance (in vivo [19]): 13 mL/min/kg; fraction unbound (in vitro [1]): < 0.02; inhibition in vivo at 3 mg/kg (Mus musculus): 34% |
| Cc1c(Cc2ccc(=O)n(Cc3ccc(C(O)(C(F)(F)F)C(F)(F)F)cc3)n2)c2cc(F)ccc2n1CC(=O)O | – | – | IC50 (Eosinophil): 57 nM; fraction unbound (in vitro [1]): < 0.02 |
| Cc1c(-c2nn(Cc3ccccc3)c(=O)c3ccccc23)c2ccccc2n1CC(=O)N1CCCC1 | > 1000 | – | – |
| Cc1c(-c2nn(Cc3ccccc3)c(=O)c3ccccc23)c2cc(Cl)ccc2n1CC(=O)O | 11 | – | – |
| Cc1c(-c2ccc(=O)n(Cc3ccccc3)n2)c2cc(Cl)cc(Cl)c2n1CC(=O)O | 1690 | 3.88 | – |
| Cc1c(-c2ccc(=O)n(Cc3ccccc3)n2)c2cc(F)ccc2n1CC(=O)O | 23 | 4.02 | Papp (in vitro [4]): 0.5 ×10⁻⁶ cm/s |
| Cc1c(Cc2ccc(=O)n(Cc3ccncc3F)n2)c2cc(F)ccc2n1CC(=O)O | – | – | fraction unbound (in vitro [1]): < 0.02 |
| Cc1c(-c2nn(Cc3ccccc3)c(=O)c3ccccc23)c2ccccc2n1CC(N)=O | > 1000 | – | – |
| Cc1ccc2c(c1)c(-c1ccc(=O)n(Cc3ccccc3)n1)c(C)n2CC(=O)O | 34 | 4.16 | – |
